Laboratory results as given in patent US9926297B2, “Bicyclic AZA compounds as muscarinic M1 receptor and/or M4 receptor agonists” (Heptares Therapeutics Limited, priority 2014, dated 2018).
Read-outs that look alike come from different tables or passages of the source.

What was measured:
[1] = target: T1, human muscarinic M4 receptor (Homo sapiens, UniProt P08173); assay: Alphascreen Surefire phospho-ERK1/2 functional assay, M4; format: cell-based; conditions: for EC50: phospho-ERK1/2, * = variable results; for Emax: CHO
T1 construct: expressed in transfected cells
T1 sequence (P08173 1-479): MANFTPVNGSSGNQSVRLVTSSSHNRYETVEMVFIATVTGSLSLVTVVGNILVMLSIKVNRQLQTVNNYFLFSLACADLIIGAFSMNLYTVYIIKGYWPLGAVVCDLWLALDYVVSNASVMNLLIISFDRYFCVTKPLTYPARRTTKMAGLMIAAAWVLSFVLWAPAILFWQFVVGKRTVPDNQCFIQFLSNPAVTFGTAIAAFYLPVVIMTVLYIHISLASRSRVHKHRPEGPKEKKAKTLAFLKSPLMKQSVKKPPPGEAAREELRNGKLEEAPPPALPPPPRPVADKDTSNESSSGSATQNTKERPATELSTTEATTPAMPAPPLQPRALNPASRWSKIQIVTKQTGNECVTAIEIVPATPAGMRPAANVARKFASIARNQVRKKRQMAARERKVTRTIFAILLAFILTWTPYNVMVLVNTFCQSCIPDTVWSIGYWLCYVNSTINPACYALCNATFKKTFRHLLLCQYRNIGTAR

[2] = target: human muscarinic M3 receptor (Homo sapiens, UniProt P20309); assay: Alphascreen Surefire phospho-ERK1/2 functional assay, M3; conditions: for Emax: CHO; for EC50: pEC50 M3, CHO cells stably expressing human M3
Sequence of human muscarinic M3 receptor (P20309 whole entry): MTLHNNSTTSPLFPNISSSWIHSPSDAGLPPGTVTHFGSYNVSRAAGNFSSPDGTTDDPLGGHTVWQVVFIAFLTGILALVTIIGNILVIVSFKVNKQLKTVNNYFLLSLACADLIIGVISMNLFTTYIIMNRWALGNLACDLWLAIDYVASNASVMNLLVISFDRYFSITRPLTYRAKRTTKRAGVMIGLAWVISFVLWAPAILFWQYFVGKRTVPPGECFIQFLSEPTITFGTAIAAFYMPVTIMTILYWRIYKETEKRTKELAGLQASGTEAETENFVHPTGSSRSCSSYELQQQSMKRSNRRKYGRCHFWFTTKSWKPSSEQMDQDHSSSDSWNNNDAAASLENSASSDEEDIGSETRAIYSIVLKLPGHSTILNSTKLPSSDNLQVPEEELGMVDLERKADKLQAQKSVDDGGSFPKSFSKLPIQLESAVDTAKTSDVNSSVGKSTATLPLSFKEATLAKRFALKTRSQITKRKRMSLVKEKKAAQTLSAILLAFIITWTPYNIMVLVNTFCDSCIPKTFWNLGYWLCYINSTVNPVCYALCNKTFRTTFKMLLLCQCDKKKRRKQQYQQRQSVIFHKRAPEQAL
Experimental: (§1) CHO cells stably expressing the human muscarinic M1, M2, M3 or M4 receptor were plated (25K/well) onto 96-well tissue culture plates in MEM-alpha+10% dialysed FBS. Once adhered, cells were serum-starved overnight. Agonist stimulation was performed by the addition of 5 μL agonist to the cells for 5 min (37° C.). Media was removed and 50 μL of lysis buffer added. After 15 min, a 4 μL sample was transferred to 384-well plate and 7 μL of detection mixture added. Plates were incubated for 2 h with gentle agitation in the dark and then read on a PHERAstar plate reader.
(§2) pEC50 and Emax figures were calculated from the resulting data for each receptor subtype.

[3] = target: T2, human muscarinic M1 receptor (Homo sapiens, UniProt P11229); assay: Alphascreen Surefire phospho-ERK1/2 functional assay, M1; format: cell-based; conditions: for EC50: phospho-ERK1/2, * = variable results; for Emax: CHO
T2 sequence (P11229 1-460): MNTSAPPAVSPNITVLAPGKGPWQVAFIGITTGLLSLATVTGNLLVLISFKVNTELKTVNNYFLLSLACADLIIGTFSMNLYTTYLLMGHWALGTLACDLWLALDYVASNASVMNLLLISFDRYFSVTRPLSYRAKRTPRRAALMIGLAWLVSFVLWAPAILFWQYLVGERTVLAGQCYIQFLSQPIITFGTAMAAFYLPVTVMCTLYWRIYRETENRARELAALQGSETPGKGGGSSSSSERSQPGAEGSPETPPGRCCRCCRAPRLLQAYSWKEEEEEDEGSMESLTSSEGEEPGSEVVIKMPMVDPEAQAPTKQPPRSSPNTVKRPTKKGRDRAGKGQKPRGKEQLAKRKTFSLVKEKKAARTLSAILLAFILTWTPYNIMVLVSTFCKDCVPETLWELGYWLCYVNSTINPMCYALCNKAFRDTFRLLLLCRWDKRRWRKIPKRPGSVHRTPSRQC
Experimental: as §1, §2

[4] = target: T3, human muscarinic M2 receptor (Homo sapiens, UniProt P08172); assay: Alphascreen Surefire phospho-ERK1/2 functional assay, M2; conditions: for Emax: CHO
T3 sequence (P08172 1-466): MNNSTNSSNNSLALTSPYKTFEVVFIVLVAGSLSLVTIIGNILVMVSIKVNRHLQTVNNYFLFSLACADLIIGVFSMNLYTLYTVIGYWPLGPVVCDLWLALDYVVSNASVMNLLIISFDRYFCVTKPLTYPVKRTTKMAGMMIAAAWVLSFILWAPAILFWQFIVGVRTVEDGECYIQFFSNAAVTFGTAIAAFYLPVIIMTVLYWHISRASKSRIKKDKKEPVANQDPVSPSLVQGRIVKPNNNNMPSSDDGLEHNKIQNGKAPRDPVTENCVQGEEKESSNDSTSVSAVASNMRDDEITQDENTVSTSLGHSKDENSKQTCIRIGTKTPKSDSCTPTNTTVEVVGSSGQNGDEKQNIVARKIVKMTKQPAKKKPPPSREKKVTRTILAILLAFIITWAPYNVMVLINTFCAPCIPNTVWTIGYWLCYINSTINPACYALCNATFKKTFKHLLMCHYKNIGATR
Experimental: as §1, §2

[5] = CHO cells stably expressing human M4, read-out: pEC50 M4 (converted)
[6] = read-out: % Emax cf. ACh, M4, CHO cells stably expressing human M4, relative to ACh
[7] = read-out: % Emax cf. ACh, M3, CHO cells stably expressing human M3, relative to ACh
[8] = phospho-ERK1/2, * = variable results
[9] = CHO cells stably expressing human M1, read-out: pEC50 M1 (converted)
[10] = read-out: % Emax cf. ACh, M1, CHO cells stably expressing human M1, relative to ACh
[11] = read-out: % Emax cf. ACh, M2, CHO cells stably expressing human M2, relative to ACh
[12] = CHO cells stably expressing human M4, relative to ACh
[13] = CHO cells stably expressing human M1, relative to ACh
[14] = CHO cells stably expressing human M2, relative to ACh

Compound: CCOC(=O)N1CCC2(CC(N3CCC(c4ncco4)CC3)C2)C1 (single isomer, unassigned) [1-23 Isomer 2, ethyl 2-[4-(1,3-oxazol-2-yl)piperidin-1-yl]-6-azaspiro[3.4]octane-6-carboxylate]
- EC50 [1, 5]: 31.6 nM
- Emax [1, 6]: 105%
- Emax [2, 7]: 9%
- EC50 [2, 8]: > 20000 nM
- EC50 [3, 9]: 398 nM
- Emax [3, 10]: 55%
- EC50 [4]: > 20000 nM
- Emax [4, 11]: 7%

Compound: COC(=O)N1CCC2(CC(N3CCC(c4nccs4)CC3)C2)C1 (single isomer, unassigned) [1-24 Isomer 2, methyl 2-[4-(1,3-thiazol-2-yl)piperidin-1-yl]-6-azaspiro[3.4]octane-6-carboxylate]
- EC50 [1, 5]: 25.1 nM
- Emax [1, 6]: 78%
- Emax [2, 7]: 0%
- EC50 [2, 8]: > 20000 nM
- EC50 [3, 9]: 251 nM
- Emax [3, 10]: 102%
- EC50 [4]: 6310 nM
- Emax [4, 11]: 32%

Compound: CCOC(=O)N1CCC2(CC(N3CCC(c4nccs4)CC3)C2)C1 (single isomer, unassigned) [1-25 Isomer 2, ethyl 2-[4-(1,3-thiazol-2-yl)piperidin-1-yl]-6-azaspiro[3.4]octane-6-carboxylate]
- EC50 [1, 5]: 3.98 nM
- Emax [1, 6]: 128%
- Emax [2, 7]: 13%
- EC50 [2, 8]: > 20000 nM
- EC50 [3, 9]: 50.1 nM
- Emax [3, 10]: 110%
- EC50 [4]: > 20000 nM
- Emax [4, 11]: 15%

Compound: CCOC(=O)N1CCC2(CC(N3CCC(c4nnc[nH]4)CC3)C2)C1 (single isomer, unassigned) [1-26 Isomer 2, ethyl 2-[4-(4H-1,2,4-triazol-3-yl)piperidin-1-yl]-6-azaspiro[3.4]octane-6-carboxylate]
- EC50 [1, 5]: 200 nM
- Emax [1, 6]: 76%
- Emax [2, 7]: 53%
- EC50 [2, 8]: 794 nM
- EC50 [3, 9]: 2510 nM
- Emax [3, 10]: 46%
- EC50 [4]: > 20000 nM
- Emax [4, 11]: 99%

Compound: CCOC(=O)N1CCC2(CC(N3CCC(c4ncns4)CC3)C2)C1 (single isomer, unassigned) [1-30 Isomer 2, ethyl 2-[4-(1,2,4-thiadiazol-5-yl)piperidin-1-yl]-6-azaspiro[3.4]octane-6-carboxylate]
- EC50 [1, 5]: 12.6 nM
- Emax [1, 6]: 101%
- Emax [2, 7]: 5%
- EC50 [2, 8]: > 20000 nM
- EC50 [3, 9]: 316 nM
- Emax [3, 10]: 37%
- EC50 [4]: > 20000 nM
- Emax [4, 11]: 9%

Compound: CCOC(=O)N1CCC2(CC(N3CCC(n4cccc4)CC3)C2)C1 (single isomer, unassigned) [1-32 Isomer 2, ethyl 2-[4-(1H-pyrrol-1-yl)piperidin-1-yl]-6-azaspiro[3.4]octane-6-carboxylate]
- EC50 [1, 5]: 6.31 nM
- Emax [1, 6]: 126%
- Emax [2, 7]: 16%
- EC50 [2, 8]: > 20000 nM
- EC50 [3, 9]: 79.4 nM
- Emax [3, 10]: 113%
- EC50 [4]: > 20000 nM
- Emax [4, 11]: 56%

Compound: CCOC(=O)N1CCC2(CC(N3CCC(n4cc(C)cn4)CC3)C2)C1 (single isomer, unassigned) [1-34 Isomer 1, ethyl 2-[4-(4-methyl-1H-pyrazol-1-yl)piperidin-1-yl]-6-azaspiro[3.4]octane-6-carboxylate]
- EC50 [1, 5]: 158 nM
- % Emax cf. ACh, M4 [1, 12]: 48%
- Emax [2, 7]: 0%
- EC50 [2, 8]: > 20000 nM
- EC50 [3, 9]: 501 nM
- % Emax cf. ACh, M1 [3, 13]: 49%
- EC50 [4]: > 20000 nM
- % Emax cf. ACh, M2 [4, 14]: 10%

Compound: CCOC(=O)N1CCC2(CC(N3CCC(n4cc(C)cn4)CC3)C2)C1 (single isomer, unassigned) [1-34 Isomer 2, ethyl 2-[4-(4-methyl-1H-pyrazol-1-yl)piperidin-1-yl]-6-azaspiro[3.4]octane-6-carboxylate]
- EC50 [1, 5]: 2.51 nM
- % Emax cf. ACh, M4 [1, 12]: 117%
- pEC50 M3 ([2]; CHO cells stably expressing human M3, phospho-ERK1/2, * = variable results): < 4.7
- % Emax cf. ACh, M3 ([2]; CHO cells stably expressing human M3, relative to ACh): 0%
- EC50 [3, 9]: 7.94 nM
- % Emax cf. ACh, M1 [3, 13]: 130%
- pEC50 M2 ([4]; CHO cells stably expressing human M2, phospho-ERK1/2, * = variable results): < 4.7
- % Emax cf. ACh, M2 [4, 14]: 43%

Compound: CCOC(=O)N1CCC2(CC(N3CCC(OC)(c4ncc[nH]4)CC3)C2)C1 (single isomer, unassigned) [1-38 Isomer 2, ethyl 2-[4-(1H-imidazol-2-yl)-4-methoxypiperidin-1-yl]-6-azaspiro[3.4]octane-6-carboxylate]
- Emax ([1]; read-out: % Emax cf. ACh, M4): 98%
- EC50 ([1]; pEC50 M4, CHO cells stably expressing human M4): 794 nM
- Emax ([2]; read-out: % Emax cf. ACh, M3): 19%
- EC50 [2, 8]: > 20000 nM
- Emax ([3]; read-out: % Emax cf. ACh, M1): 31%
- EC50 ([3]; pEC50 M1, CHO cells stably expressing human M1): 100 nM
- EC50 [4]: > 20000 nM
- Emax ([4]; read-out: % Emax cf. ACh, M2): 14%

Compound: COC(=O)N1CCC2(CC(N3CCC(n4cc(C)cn4)CC3)C2)C1 (single isomer, unassigned) [1-42 Isomer 2, methyl 2-[4-(4-methyl-1H-pyrazol-1-yl)piperidin-1-yl]-6-azaspiro[3.4]octane-6-carboxylate]
- EC50 [1, 5]: 6.31 nM
- Emax [1, 6]: 76%
- Emax [2, 7]: 16%
- EC50 [2, 8]: > 20000 nM
- EC50 [3, 9]: 39.8 nM
- Emax [3, 10]: 123%
- EC50 [4]: 316 nM
- Emax [4, 11]: 27%

Compound: CCOC(=O)N1CCC2(CC(N3CCC(c4ccon4)CC3)C2)C1 (single isomer, unassigned) [1-43 Isomer 2, ethyl 2-[4-(1,2-oxazol-3-yl)piperidin-1-yl]-6-azaspiro[3.4]octane-6-carboxylate]
- EC50 [1, 5]: 31.6 nM
- Emax [1, 6]: 61%
- Emax [2, 7]: 8%
- EC50 [2, 8]: > 20000 nM
- EC50 [3, 9]: 158 nM
- Emax [3, 10]: 32%
- EC50 [4]: > 20000 nM
- Emax [4, 11]: 7%

Compound: CCOC(=O)N1CCC2(CC(N3CCC(n4ccc(C)n4)CC3)C2)C1 (single isomer, unassigned) [1-44 Isomer 2, ethyl 2-[4-(3-methyl-1H-pyrazol-1-yl)piperidin-1-yl]-6-azaspiro[3.4]octane-6-carboxylate]
- EC50 [1, 5]: 6.31 nM
- Emax [1, 6]: 126%
- Emax [2, 7]: 7%
- EC50 [2, 8]: > 20000 nM
- EC50 [3, 9]: 79.4 nM
- Emax [3, 10]: 126%
- EC50 [4]: > 20000 nM
- Emax [4, 11]: 80%

Compound: COC(=O)N1CCC2(CC(N3CCC(n4ccc(C)n4)CC3)C2)C1 (single isomer, unassigned) [1-45 Isomer 2, methyl 2-[4-(3-methyl-1H-pyrazol-1-yl)piperidin-1-yl]-6-azaspiro[3.4]octane-6-carboxylate]
- EC50 [1, 5]: 20 nM
- Emax [1, 6]: 80%
- Emax [2, 7]: 26%
- EC50 [2, 8]: > 20000 nM
- EC50 [3, 9]: 316 nM
- Emax [3, 10]: 80%
- EC50 [4]: 1580 nM
- Emax [4, 11]: 56%

Compound: CCOC(=O)N1CCC2(CC(N3CCC(c4ccnn4CC)CC3)C2)C1 (single isomer, unassigned) [1-47 Isomer 2, ethyl 2-[4-(1-ethyl-1H-pyrazol-5-yl)piperidin-1-yl]-6-azaspiro[3.4]octane-6-carboxylate]
- EC50 [1, 5]: 15.8 nM
- Emax [1, 6]: 81%
- Emax [2, 7]: 19%
- EC50 [2, 8]: > 20000 nM
- EC50 [3, 9]: > 20000 nM
- Emax [3, 10]: 7%
- EC50 [4]: ≥ 20000 nM
- Emax [4, 11]: 82%
